# Results taken from ChEMBL document CHEMBL1159217, “Anti-inflammatory activity of saikosaponins from Heteromorpha trifoliata” (1995).
# What was measured:
# Format in all cases: functional
# Mus musculus [1] = experiment: Antiinflammatory activity in Swiss mouse assessed as inhibition of carrageenan-induced ear edema at 100 mg/kg, po administered 1 hr prior to carrageenan challenge measured after 3 hrs
# Mus musculus [2] = experiment: Antiinflammatory activity in Swiss mouse assessed as inhibition of 12-O-tetradecanoylphorbol acetate-induced ear edema at 0.5 mg/ear administered tropically
# Mus musculus [3] = experiment: Antiinflammatory activity in Swiss mouse assessed as inhibition of serotonin-induced ear edema at 50 mg/kg, sc; settings: route subcutaneous
# Mus musculus [4] = experiment: Antiinflammatory activity in Swiss mouse assessed as inhibition of serotonin-induced ear edema at 50 mg/kg, sc in presence of actinomycin D administered simultaneously and 1.5 hrs after compound treatment for 3 hrs; parameters: scale not given: the % may be the effect or the level left; settings: route subcutaneous
# Mus musculus [5] = experiment: Antiinflammatory activity in Swiss mouse assessed as inhibition of ethylphenylpropiolate-induced ear edema at 0.5 mg/ear administered tropically 16 hrs prior to ethylphenylpropiolate challenge
# Mus musculus [6] = experiment: Antiinflammatory activity in Swiss mouse assessed as inhibition of serotonin-induced ear edema at 50 mg/kg, sc in presence of cycloheximide administered simultaneously and 1.5 hrs after compound treatment for 3 hrs; parameters: scale not given: the % may be the effect or the level left; settings: route subcutaneous
# Mus musculus [7] = experiment: Antiinflammatory activity in Swiss mouse assessed as inhibition of serotonin-induced ear edema at 50 mg/kg, sc in presence of progesterone administered 1 hr prior to compound treatment; settings: route subcutaneous
Compound,inhibition in vivo at 100 mg/kg (Mus musculus [1]) [%],inhibition (INH) (Mus musculus [2]) [%],inhibition (INH) (Mus musculus [5]) [%],also measured
CO[C@@H]1C=C2[C@@H]3CC(C)(C)CC[C@]3(CO)[C@@H](O)C[C@@]2(C)[C@]2(C)CC[C@H]3[C@](C)(CO)[C@@H](O[C@@H]4O[C@H](C)[C@H](O)[C@H](O[C@@H]5O[C@H](CO)[C@@H](O)[C@H](O)[C@H]5O)[C@H]4O[C@@H]4O[C@H](CO)[C@@H](O)[C@H](O)[C@H]4O)CC[C@]3(C)[C@@H]12,18,87,,
C[C@H]1O[C@@H](O[C@H]2CC[C@@]3(C)[C@@H](CC[C@]4(C)[C@@H]3C=C[C@]35OC[C@@]6(CCC(C)(C)C[C@H]63)[C@@H](O)C[C@]54C)[C@]2(C)CO)[C@H](O[C@@H]2O[C@H](CO)[C@@H](O)[C@H](O)[C@H]2O)[C@@H](O[C@@H]2O[C@H](CO)[C@@H](O)[C@H](O)[C@H]2O)[C@H]1O [BUDDLEJASAPONIN IV],23,89,59,inhibition in vivo at 50 mg/kg (Mus musculus [3]): 48%; Activity (Mus musculus [4]): 14%; Activity (Mus musculus [6]): 14%
C[C@@H]1C[C@H]2[C@@H]3CCC4=CC(=O)C=C[C@]4(C)[C@@]3(F)[C@@H](O)C[C@]2(C)[C@@]1(O)C(=O)CO [DEXAMETHASONE],,,82,
COc1ccc2c(c1)c(CC(=O)O)c(C)n2C(=O)c1ccc(Cl)cc1 [INDOMETHACIN],,89,,
CC(=O)[C@H]1CC[C@H]2[C@@H]3CCC4=CC(=O)CC[C@]4(C)[C@H]3CC[C@]12C [PROGESTERONE],,,,inhibition in vivo at 50 mg/kg (Mus musculus [7]): 44%
